Source: ChEMBL document CHEMBL4602639, “A novel series of 11-O-carbamoyl-3-O-descladinosyl clarithromycin derivatives bearing 1,2,3-triazole group: Design, synthesis and antibacterial evaluation” (2020)
≈ marks a conversion by molar mass, not a printed value. Calls of active or inactive are those of the source. The rule behind the calls is not given here.

Columns and labels:
Streptococcus pyogenes [1] = assay: Potency index, ratio of MIC of AZM to MIC of compound for antibacterial activity against erythromycin resistant Streptococcus pyogenes R1; format: functional
Bacillus subtilis [2] = assay: Bactericidal activity against penicillin-susceptible Bacillus subtilis ATCC 9372; format: functional
Staphylococcus aureus [3] = assay: Antibacterial activity against erythromycin-susceptible Staphylococcus aureus ATCC 25923 by standard broth microdilution method; format: functional
Staphylococcus aureus [4] = assay: Antibacterial activity against methicillin-resistant Staphylococcus aureus ATCC 43300 by standard broth microdilution method; format: functional
Escherichia coli = assay: Antibacterial activity against penicillin-susceptible Escherichia coli ATCC 25922 by standard broth microdilution method; format: functional
Streptococcus pneumoniae [5] = assay: Antibacterial activity against erythromycin-resistant Streptococcus pneumoniae AB11 expressing ermB and me/A genes by standard broth microdilution method; format: functional
Streptococcus pneumoniae [6] = assay: Ratio of MBC for erythromycin-resistant Streptococcus pneumoniae AB11 expressing ermB and me/A genes to MIC for erythromycin-resistant Streptococcus pneumoniae AB11 expressing ermB and me/A genes; format: functional
Streptococcus pneumoniae [7] = assay: Bacteriostatic activity against erythromycin-resistant Streptococcus pneumoniae AB11 expressing ermB and me/A genes at 1 to 4 MIC incubated for 9 to 24 hrs by time-kill curve assay; format: functional, organism-based
Streptococcus pneumoniae [8] = assay: Bactericidal activity against erythromycin-resistant Streptococcus pneumoniae AB11 expressing ermB and me/A genes at 1 to 4 times of MIC incubated for 9 hrs by time-kill curve assay; format: functional, organism-based
Streptococcus pneumoniae [9] = assay: Antibacterial activity against erythromycin-resistant Streptococcus pneumoniae B1 expressing ermB gene by standard broth microdilution method; format: functional
Bacillus subtilis [10] = assay: Antibacterial activity against penicillin-susceptible Bacillus subtilis ATCC 9372 by standard broth microdilution method; format: functional
Streptococcus pneumoniae [11] = assay: Potency index, ratio of MIC of CAM to MIC of compound for antibacterial activity against erythromycin-resistant Streptococcus pneumoniae AB11 expressing ermB and me/A genes; format: functional
Streptococcus pyogenes [12] = assay: Potency index, ratio of MIC of CAM to MIC of compound for antibacterial activity against erythromycin resistant Streptococcus pyogenes R1; format: functional
Streptococcus pneumoniae [13] = assay: Potency index, ratio of MIC of AZM to MIC of compound for antibacterial activity against erythromycin-resistant Streptococcus pneumoniae AB11 expressing ermB and me/A genes; format: functional
Bacillus subtilis [14] = assay: Ratio of MBC for penicillin-susceptible Bacillus subtilis ATCC 9372 to MIC for penicillin-susceptible Bacillus subtilis ATCC 9372; format: functional
Streptococcus pneumoniae [15] = assay: Bactericidal activity against erythromycin-resistant Streptococcus pneumoniae AB11 expressing ermB and me/A genes; format: functional
Pseudomonas aeruginosa = assay: Antibacterial activity against penicillin-susceptible Pseudomonas aeruginosa ATCC 27853 by standard broth microdilution method; format: functional
Streptococcus pyogenes [16] = assay: Antibacterial activity against erythromycin resistant Streptococcus pyogenes R1 by standard broth microdilution method; format: functional
Streptococcus pneumoniae [17] = assay: Potency index, ratio of MIC of CAM to MIC of compound for antibacterial activity against erythromycin-resistant Streptococcus pneumoniae B1 expressing ermB gene; format: functional
Staphylococcus aureus [18] = assay: Potency index, ratio of MIC of AZM to MIC of compound for antibacterial activity against methicillin-resistant Staphylococcus aureus ATCC 43300; format: functional
Staphylococcus aureus [19] = assay: Potency index, ratio of MIC of CAM to MIC of compound for antibacterial activity against methicillin-resistant Staphylococcus aureus ATCC 43300; format: functional
Streptococcus pneumoniae [20] = assay: Potency index, ratio of MIC of AZM to MIC of compound for antibacterial activity against erythromycin-resistant Streptococcus pneumoniae B1 expressing ermB gene; format: functional

SMILES	Ratio (Streptococcus pyogenes [1])	MBC (Bacillus subtilis [2])	MIC (Staphylococcus aureus [3])	MIC (Staphylococcus aureus [4])	MIC (Escherichia coli)	MIC (Streptococcus pneumoniae [5])	Ratio (Streptococcus pneumoniae [6])	MIC (Streptococcus pneumoniae [9])	MIC (Bacillus subtilis [10])	Ratio (Streptococcus pneumoniae [11])	Ratio (Streptococcus pyogenes [12])	Ratio (Streptococcus pneumoniae [13])	Ratio (Bacillus subtilis [14])	MBC (Streptococcus pneumoniae [15])	MIC (Pseudomonas aeruginosa)	MIC (Streptococcus pyogenes [16])	other results
CC[C@H]1OC(=O)[C@H](C)C(=O)[C@H](C)[C@@H](O[C@H]2O[C@@H](C)C[C@@H](N(C)C)[C@@H]2O)[C@](C)(OC)C[C@@H](C)C(=O)[C@H](C)[C@@H](OC(=O)NCCCn2cc(-c3ccc(Cl)cc3)nn2)[C@]1(C)O	8 - 16	128 µg/mL (≈ 151 µM)	4 µg/mL (≈ 4.7 µM)	128 µg/mL (≈ 151 µM)	> 128 µg/mL	16 µg/mL (≈ 18.8 µM)	1	64 µg/mL (≈ 75.3 µM)	1 µg/mL (≈ 1.18 µM)	4 - 8	8 - 16	8 - 16	512	128 µg/mL (≈ 151 µM)	128 µg/mL (≈ 151 µM)	32 µg/mL (≈ 37.6 µM)	Activity (Streptococcus pneumoniae [7]): Dose-dependent effect; Activity (Streptococcus pneumoniae [8]): Active
CC[C@H]1OC(=O)[C@H](C)C(=O)[C@H](C)[C@@H](O[C@H]2O[C@@H](C)C[C@@H](N(C)C)[C@@H]2O)[C@](C)(OC)C[C@@H](C)C(=O)[C@H](C)[C@@H](OC(=O)NCCCn2cc(-c3cccc(Br)c3)nn2)[C@]1(C)O	8 - 16		8 µg/mL (≈ 8.94 µM)	128 µg/mL (≈ 143 µM)	> 128 µg/mL	32 µg/mL (≈ 35.8 µM)		64 µg/mL (≈ 71.5 µM)	2 µg/mL (≈ 2.23 µM)	4 - 8	8 - 16	8 - 16			128 µg/mL (≈ 143 µM)	32 µg/mL (≈ 35.8 µM)	
CC[C@H]1OC(=O)[C@H](C)C(=O)[C@H](C)[C@@H](O[C@H]2O[C@@H](C)C[C@@H](N(C)C)[C@@H]2O)[C@](C)(OC)C[C@@H](C)C(=O)[C@H](C)[C@@H](OC(=O)NCCCn2cc(-c3ccc(-c4ccccc4)cc3)nn2)[C@]1(C)O	8 - 16	32 µg/mL (≈ 35.9 µM)	4 µg/mL (≈ 4.48 µM)	64 µg/mL (≈ 71.7 µM)	> 128 µg/mL	16 µg/mL (≈ 17.9 µM)	8	16 µg/mL (≈ 17.9 µM)	1 µg/mL (≈ 1.12 µM)	4 - 8	8 - 16	8 - 16	32	128 µg/mL (≈ 143 µM)	128 µg/mL (≈ 143 µM)	16 µg/mL (≈ 17.9 µM)	Ratio (Streptococcus pneumoniae [17]): >16; Ratio (Staphylococcus aureus [18]): >4; Ratio (Staphylococcus aureus [19]): >4; Ratio (Streptococcus pneumoniae [20]): >16
CC[C@H]1OC(=O)[C@H](C)C(=O)[C@H](C)[C@@H](O[C@H]2O[C@@H](C)C[C@@H](N(C)C)[C@@H]2O)[C@](C)(OC)C[C@@H](C)C(=O)[C@H](C)[C@@H](OC(=O)NCCCn2cc(-c3ccccc3OC)nn2)[C@]1(C)O			8 µg/mL (≈ 9.46 µM)	> 256 µg/mL	> 128 µg/mL	32 µg/mL (≈ 37.8 µM)		256 µg/mL (≈ 303 µM)	2 µg/mL (≈ 2.36 µM)	4 - 8		8 - 16			128 µg/mL (≈ 151 µM)	64 µg/mL (≈ 75.6 µM)	
CCCCc1ccc(-c2cn(CCNC(=O)O[C@@H]3[C@@H](C)C(=O)[C@H](C)C[C@@](C)(OC)[C@H](O[C@H]4O[C@@H](C)C[C@@H](N(C)C)[C@@H]4O)[C@@H](C)C(=O)[C@@H](C)C(=O)O[C@H](CC)[C@@]3(C)O)nn2)cc1	8 - 16		16 µg/mL (≈ 18.6 µM)	256 µg/mL (≈ 298 µM)	> 128 µg/mL	64 µg/mL (≈ 74.6 µM)		128 µg/mL (≈ 149 µM)	4 µg/mL (≈ 4.66 µM)		8 - 16				128 µg/mL (≈ 149 µM)	32 µg/mL (≈ 37.3 µM)	
CC[C@H]1OC(=O)[C@H](C)[C@@H](O[C@H]2C[C@@](C)(OC)[C@@H](O)[C@H](C)O2)[C@H](C)[C@@H](O[C@@H]2O[C@H](C)C[C@H](N(C)C)[C@H]2O)[C@](C)(OC)C[C@@H](C)C(=O)[C@H](C)[C@@H](O)[C@]1(C)O [CLARITHROMYCIN]		128 µg/mL (≈ 171 µM)	0.25 µg/mL (≈ 0.334 µM)	> 256 µg/mL	> 128 µg/mL	128 µg/mL (≈ 171 µM)	16	> 256 µg/mL	0.25 µg/mL (≈ 0.334 µM)				128	256 µg/mL (≈ 342 µM)	32 µg/mL (≈ 42.8 µM)	256 µg/mL (≈ 342 µM)	
CC[C@H]1OC(=O)[C@H](C)C(=O)[C@H](C)[C@@H](O[C@H]2O[C@@H](C)C[C@@H](N(C)C)[C@@H]2O)[C@](C)(OC)C[C@@H](C)C(=O)[C@H](C)[C@@H](OC(=O)NCCCn2cc(-c3cccc(N)c3)nn2)[C@]1(C)O			16 µg/mL (≈ 19.3 µM)	> 256 µg/mL	> 128 µg/mL	32 µg/mL (≈ 38.5 µM)		128 µg/mL (≈ 154 µM)	4 µg/mL (≈ 4.81 µM)	4 - 8		8 - 16			128 µg/mL (≈ 154 µM)	128 µg/mL (≈ 154 µM)	
CCCCc1ccc(-c2cn(CCCNC(=O)O[C@@H]3[C@@H](C)C(=O)[C@H](C)C[C@@](C)(OC)[C@H](O[C@H]4O[C@@H](C)C[C@@H](N(C)C)[C@@H]4O)[C@@H](C)C(=O)[C@@H](C)C(=O)O[C@H](CC)[C@@]3(C)O)nn2)cc1	8 - 16		16 µg/mL (≈ 18.3 µM)	64 µg/mL (≈ 73.4 µM)	> 128 µg/mL	32 µg/mL (≈ 36.7 µM)		32 µg/mL (≈ 36.7 µM)	2 µg/mL (≈ 2.29 µM)	4 - 8	8 - 16	8 - 16			128 µg/mL (≈ 147 µM)	16 µg/mL (≈ 18.3 µM)	Ratio (Staphylococcus aureus [18]): >4; Ratio (Staphylococcus aureus [19]): >4
CC[C@H]1OC(=O)[C@H](C)C(=O)[C@H](C)[C@@H](O[C@H]2O[C@@H](C)C[C@@H](N(C)C)[C@@H]2O)[C@](C)(OC)C[C@@H](C)C(=O)[C@H](C)[C@@H](OC(=O)NCCn2cc(-c3ccc(-c4ccccc4)cc3)nn2)[C@]1(C)O	8 - 16		32 µg/mL (≈ 36.4 µM)	128 µg/mL (≈ 146 µM)	> 128 µg/mL	64 µg/mL (≈ 72.9 µM)		128 µg/mL (≈ 146 µM)	4 µg/mL (≈ 4.56 µM)		8 - 16				128 µg/mL (≈ 146 µM)	32 µg/mL (≈ 36.4 µM)	
